No end group written: not given here.
Columns and labels:
[1] = system: RSV F (HEp-2 cells expressing RSV F, G and SH); format: cell-based, respiratory syncytial virus
[2] = system: RSV (A2 strain) in HEp-2 cells
RSV F protein = details: ref [14], cited from earlier work
[3] = system: RSV F construct FN155 (F residues 155–550); details: yeast two-hybrid assay; FN155 construct encoding F residues 155–550; ref [14]; cited from earlier work

In the case of DSPDSLENIPEKWTPEVKH [RhoA87-105], the “cell-to-cell fusion induced by RSV F” value [1] is reported as “not inhibited” and the plaque formation ([2]; pretreatment of virus inoculum, 1 h on ice, peptide 5 and 10 μg/ml, HEp-2 cells, 3 d, relative to media-treated controls) is reported as “did not have any effect”.

For DRLRPLSYPDTDVILMCFS [RhoA67-85], the RSV-induced syncytium formation ([2]; peptide incubated 1 h on ice with RSV, 5 and 10 μg/ml, HEp-2 cells, 3 d) was “did not block”.

For “RhoA amino acids 67–110: F binding domain of RhoA (amino acids 67–110)”, the “binding to RSV F amino acids 146–155” value (RSV F protein; RhoA amino acids 67–110) is given as “bind”.

In the case of TDVILMCFSIDSPDSLENI [RhoA77-95], the IC50 ([2]; 1 h) is reported as 250 nM.

In the case of “RhoA: RhoA, a small GTPase of the Ras superfamily”, the “binding to RSV F protein” value (RSV F protein) is listed as “binds” and the “binding to RSV F construct expressing the heptad repeat region” value [3] is listed as “not bind”.

Reference: paper PMC7095870 (Nature Medicine, 2000)
